molecular target: T1, TgMIC1-MARR (Toxoplasma gondii, UniProt O00834); assay type: binding; settings: lipid-linked probe immobilised at 5 fmol/spot; 40 µg/ml protein precomplexed with anti-His antibodies; ambient temperature
T1 construct: gene MIC1
T1 sequence (O00834 17-262): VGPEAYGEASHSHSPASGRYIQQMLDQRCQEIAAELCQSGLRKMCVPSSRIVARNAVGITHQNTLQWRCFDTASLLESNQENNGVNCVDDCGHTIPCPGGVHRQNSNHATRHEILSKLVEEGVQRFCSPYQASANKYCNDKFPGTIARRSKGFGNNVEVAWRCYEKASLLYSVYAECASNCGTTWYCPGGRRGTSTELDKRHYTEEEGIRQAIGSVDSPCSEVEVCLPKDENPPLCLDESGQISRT

Compound | Fluorescence signal intensities / TgMIC1-MARR
NeuGcα-6GalNAc-AO [compound 88] | 13,982 fluorescence units
NeuGcα-3Galβ-3GlcNAcβ-3Galβ-4Glcß-C30 [compound 39] | 11,075 fluorescence units
NeuGcα-3Galß-4Glcß-Cer [compound 60] | 12,526 fluorescence units
NeuAcα-3Galß-4Glcß-Cer [compound 59] | 4,327 fluorescence units
NeuAcα-3Galβ-3GlcNAcβ-3Galβ-4Glcß-C30 [compound 38] | 11,580 fluorescence units

molecular target: T2, EtMIC3-MAR1b (thioredoxin-His fusion, microarray) (Eimeria tenella, UniProt B6VCV4); assay type: binding; settings: lipid-linked probe immobilised at 5 fmol/spot; 40 µg/ml protein precomplexed with anti-His antibodies; ambient temperature
T2 construct: gene mic3

Compound | Fluorescence signal intensities / EtMIC3-MAR1b
NeuAcα-3Galβ-3GlcNAcβ-3Galβ-4Glcß-C30 [compound 38] | 5,423 fluorescence units
NeuAcα-6Galβ-4GlcNAcβ-3Galβ-4Glc-DH [compound 79] | 5,570 fluorescence units
GT1b [compound 109] | 8,121 fluorescence units

molecular target: T3, EtMIC3-MAR1b (NMR construct) (Eimeria tenella, UniProt B6VCV4); assay type: binding; settings: phosphate buffer pH 5.5; sialic acid contacts L175, Y178 and HLT motif
T3 construct: gene mic3

Compound | isotope-filtered NMR NOESY; HADDOCK structure from 9 intermolecular NOEs
CC(=O)N[C@H]1[C@H]([C@H](O)[C@H](O)CO)O[C@@](O[C@H]2[C@@H](O)[C@@H](CO)O[C@@H](O[C@H]3[C@H](O)[C@@H](NC(C)=O)C(O)O[C@@H]3CO)[C@@H]2O)(C(=O)O)C[C@@H]1O (stereo partly drawn) [Siaα2–3Galβ1–4GlcNAc] | intermolecular NOEs

Reference: PMC3192848 (PLoS Pathogens, 2011)
